What is called inhibition is the change of the read-out against control, counted positive when it falls. One may read the pIC50 as −log10 of the IC50, conventionally taken in molar units.

Experimental findings from patent EP0367040A1, “Compounds for the treatment of urinary incontinence” (Kabi Pharmacia AB, priority 1988, dated 1990) are described below.

Experiment [1] deals with rabbit urinary bladder. Kind of experiment: Anticholinergic effect on carbachol-stimulated isolated urinary bladder strips. The format is cell-based. The settings on record: Oryctolagus cuniculus, read-out: Carbachol stim.rabbit urinary bladder KD.
Experimental: (§1) Carbachol was used as an agonist and was added to the organ bath cumulatively.
The subject of a further experiment is rabbit papillary muscles. Briefly: Electrically stimulated isolated papillary muscle (heart), contraction amplitude. The settings on record: Oryctolagus cuniculus, read-out: El.stim. papillary muscle, % inhibition of 1 µM. Format: cell-based.
In the next experiment the test system is albino mice. Briefly: Mydriatic effect, pupil diameter in unanaesthetized mice after intravenous dosing. The format is in vivo.
For another experiment, the system named is rabbit portal vein. Briefly: Electrically induced submaximal contractions of isolated portal vein. The format is cell-based. The settings on record: Oryctolagus cuniculus, read-out: El.stim. portal vein % inhibition by 1 µM.
In experiment [2] the test system is rabbit urinary bladder. Briefly: Inhibition of electrically induced contractions of isolated urinary bladder strips. The format is cell-based. The settings on record: Oryctolagus cuniculus; electrically stimulated isolated rabbit bladder strips; only about half of the contractile response is mediated by cholinergic nerves; read-out: El.stim. rabbit urinary bladder IC50.
Experimental: as §1

A further experiment relates to muscarinic receptors. Briefly: Selectivity factor: isolated human urinary bladder versus human salivary gland (QNB radioligand). The format is binding. The settings on record: quotient of inhibitory concentration on isolated human urinary bladder and human salivary gland; lower figure = higher selectivity for the bladder. An excerpt:
The human salivary glands were obtained from patients undergoing operation for treatment of cancer in these glands. As the radioligand by which the muscarinic receptors were label led, QNB was used. The method is described in detail by S. Batra et al. in Psychopharmacology, 1986, 90, 1-4.

[3] abbreviates: carbachol as agonist, added cumulatively, isolated rabbit bladder strips.
[4] abbreviates: 1 µM, isolated rabbit papillary muscle, electrically stimulated.
The mark [5] stands for this setting: 1 µM, isolated rabbit portal vein, electrically stimulated.

pIC50: −log10 of the molar value. Read-outs that look alike come from different tables or passages of the source.

Experimental for albino mice: For studying the mydriatic effect of the compounds un­anaesthetized albino mice were used. The substance was given intravenously in different doses and the pupil diame­ter was measured by means of a microscope every tenth minute until the effect disappeared.
Text for rabbit papillary muscles: The effects on heart were investigated by using isolated, rabbit papillary muscles, which were electrically stimulated at a submaximum frequency. The contraction amplitude was re­corded.

With `CCN(CC)CC#CCOC(=O)C(O)(c1ccccc1)C1CCCCC1` (stereo not shown) [Oxybutynin, 2-cyclohexyl-2-hydroxy-2-phenylacetic acid 4-(diethylamino)-2-butynyl ester, reference compound], the Kb in the experiment with rabbit urinary bladder [1] came out at 6 nM. Also, the inhibition at 1 µM in the experiment on rabbit papillary muscles is 3%; with rabbit portal vein, 6%. The “Mydriatic effect, % dilatation by 1 mg/kg i.v.” value (from here on “Mydriatic effect, % dilatation”) in the experiment on albino mice came out at 95%.
Regarding `CC(C)N(CCCN(C)C(=O)C(c1ccccc1)c1ccccc1)C(C)C` [Example No 4, N-methyl-N-(3-diisopropylaminopropyl)-2,2 diphenylacetamide], the pIC50 with rabbit urinary bladder [2] was 4.45. Also, the Kb in the experiment with rabbit urinary bladder [1] (setting [3]) turned out to be 550 nM. Also, the inhibition at 1 µM with rabbit papillary muscles (setting [4]) came to 9%; in the experiment with rabbit portal vein (setting [5]), 4%. In the experiment with albino mice, the “Mydriatic effect, % dilatation” value was found to be 0%. In the experiment with muscarinic receptors, the “Selectivity factor for human urinary bladder in comparison with human salivary gland” value (“Selectivity factor” below) stood at 5.
On to `CN1[C@@H]2CC[C@H]1C[C@@H](OC(=O)C(CO)c1ccccc1)C2` (stereo partly shown) [Atropine, reference compound], for which the Kb with rabbit urinary bladder [1] was found to be 2 nM. The inhibition at 1 µM with rabbit papillary muscles came to 5%; in the experiment on rabbit portal vein, 20%.
For the compound `CN(CCCN(C)C(C)(C)C)C(=O)C(c1ccccc1)c1ccccc1.Cl` [Example No 7, N-methyl-N-[3-(N-methyl-N-tert-butyl-amino)propyl]-2,2-diphenylacetamide hydrochloride], in the experiment on rabbit urinary bladder [2], the pIC50 is 4.59. Moreover, the Kb in the experiment with rabbit urinary bladder [1] (setting [3]) stood at 2900 nM. Also, the inhibition at 1 µM turned out to be 0% with rabbit papillary muscles (setting [4]) and 4% with rabbit portal vein (setting [5]). Moreover, in the experiment with albino mice, the “Mydriatic effect, % dilatation” value was 0%. For the same compound, the “Selectivity factor” value in the experiment on muscarinic receptors amounted to 2.
Regarding `CC(CC(c1ccccc1)c1ccccc1)NC(C)(C)C` (stereo not shown) [Terodiline, N-t-butyl-3,3-diphenyl-1-methylpropylamine, reference compound], in the experiment on rabbit urinary bladder [2], the pIC50 is 4.84. The Kb in the experiment with rabbit urinary bladder [1] (setting [3]) worked out at 220 nM. Besides, the inhibition at 1 µM with rabbit papillary muscles (setting [4]) was found to be 14%; with rabbit portal vein (setting [5]), 4%. Also, the “Mydriatic effect, % dilatation” value with albino mice stood at 1%. In the experiment on muscarinic receptors, the “Selectivity factor” value is 93.
Regarding `CC(C)N(CCN(C)C(=O)C(c1ccccc1)c1ccccc1)C(C)C.Cl` [Example No 3, N-methyl-N-(2-diisopropylaminoethyl)-2,2-diphenyl-acetamide hydrochloride], the pIC50 in the experiment on rabbit urinary bladder [2] is 5.07. The Kb in the experiment on rabbit urinary bladder [1] (setting [3]) is 60 nM. Besides, the inhibition at 1 µM was determined as 8% in the experiment with rabbit papillary muscles (setting [4]) and 10% in the experiment on rabbit portal vein (setting [5]). Besides, in the experiment on albino mice, the “Mydriatic effect, % dilatation” value is listed as 2%. Also, the “Selectivity factor” value in the experiment on muscarinic receptors worked out at 6.
`CC(C)N(CCNC(=O)C(c1ccccc1)c1ccccc1)C(C)C` [Example No 10, N-(2-diisopropylaminoetyl)-2,2-diphenylacetamide]: the negative-log IC50 (pIC50) in the experiment with rabbit urinary bladder [2] was 5.28. Besides, in the experiment with rabbit urinary bladder [1] (setting [3]), the Kb was 110 nM. Moreover, the results for the inhibition at 1 µM with rabbit papillary muscles (setting [4]) and with rabbit portal vein (setting [5]) were 0% and 10%, respectively. In addition, the “Mydriatic effect, % dilatation” value with albino mice is listed as 11%. Further, the “Selectivity factor” value in the experiment on muscarinic receptors is 6.
